What was measured:
Assay type in all cases: cell-based
A427 cells = assay: 72 hr proliferation assay in lines stably expressing empty vector, GAC or GAC-BR
Protocol: A427 parent cells or lines stably expressing pLVX empty vector control (Con), wild-type GAC (GAC), or a BPTES-resistant GAC enzyme (GAC-BR) were treated with indicated concentrations of drugs in a 72 hr proliferation assay. […] Calculated p-values from student t-test, * (3×10^−8), **(10^−9), ^#(10^−7), ^##(2×10^−6).
Levels of overexpression of the GAC WT and GAC-BR mutant were approximately 1.5-2.0 fold above endogenous GLS1 levels (FIG. 12).

NCI-H748 = assay: Lung cancer cell line panel screened for sensitivity to BPTES, 72 hr proliferation assay
Text: (§1) Of these, 44 of the cell lines have been classified as non-small cell lung cancer (NSCLC). […] Four of the top 25 transcriptional/cellular pathways were related to the epithelial-mesenchymal transition (EMT) (ranks 1, 15, 23, 25 of FIG. 2). […] Low E-cadherin/high vimentin are well-defined markers of cells that have a mesenchymal phenotype as characterized for example, in any one of the following references: (Yauch et al., (2005) Cin Cancer Res 11:24; Savagner et al., (2010) Ann Oncol. 21(suppl 7): vii89; Thiery et al., (2002) Nature Reviews Cancer June vol 2:442).

NCI-H2347 = assay: as above
Text: as §1

NCI-H1770 = assay: as above
Text: as §1

DMS-153 = assay: as above; conditions: DMS-153 cell line
Text: as §1

HCC15 = assay: as above
Text: as §1

NCI-H1373 = assay: as above
Text: as §1

NCI-H1838 = assay: as above
Text: as §1

NCI-H2030 = assay: as above
Text: as §1

NCI-H661 = assay: as above
Text: as §1

NCI-H1618 = assay: as above
Text: as §1

NCI-H1993 = assay: as above
Text: as §1

NCI-H1975 = assay: as above
Text: as §1

NCI-H209 = assay: as above
Text: as §1

NCI-H522 = assay: as above
Text: as §1

NCI-H1650 = assay: as above
Text: as §1

NCI-H1437 = assay: as above
Text: as §1

NCI-H1299 = assay: as above
Text: as §1

COR-L23 = assay: as above
Text: as §1

NCI-H1092 = assay: as above
Text: as §1

NCI-H292 = assay: as above
Text: as §1

NCI-H2126 = assay: as above
Text: as §1

NCI-H2107 = assay: as above
Text: as §1

NCI-H1694 = assay: as above
Text: as §1

NCI-H358 = assay: as above
Text: as §1

NCI-H1734 = assay: as above
Text: as §1

NCI-H1651 = assay: as above
Text: as §1

NCI-H2122 = assay: as above
Text: as §1

NCI-H1568 = assay: as above
Text: as §1

A549 = assay: as above
Text: as §1

COR-L279 = assay: as above
Text: as §1

CALU-6 = assay: as above; conditions: CALU-6 cell line
Text: as §1

NCI-H2171 = assay: as above
Text: as §1

NCI-H1666 = assay: as above
Text: as §1

O=C(Cc1ccccc1)Nc1nnc(CCSCCc2nnc(NC(=O)Cc3ccccc3)s2)s1 [BPTES]
sensitivity to BPTES (A427 cells; A427 cells expressing empty vector or GAC-WT): retained significant sensitivity
sensitivity to BPTES (A427 cells; A427 cells with stable overexpression of the GAC-BR mutant): rendered resistant
μ/μmax (NCI-H748): 0.76
μ/μmax (NCI-H2347): 0.90
μ/μmax (NCI-H1770): 0.56
μ/μmax (DMS-153): 0.58
Max Inh @ 10 uM (%) (HCC15; HCC15, 10 uM): 40%
Mu/max @10 uM (HCC15; HCC15, 10 uM): 0.64
μ/μmax @10 uM (HCC15; HCC15, 10 uM): 0.64
μ/μmax (HCC15; HCC15 cell line): 0.64
μ/μmax (NCI-H1373): 0.79
μ/μmax (NCI-H1838): 0.63
Max Inh @ 10 uM (%) (NCI-H2030; NCI-H2030, 10 uM): 87%
Mu/max @10 uM (NCI-H2030; NCI-H2030, 10 uM): 0.37
μ/μmax @10 uM (NCI-H2030; NCI-H2030, 10 uM): 0.37
μ/μmax (NCI-H2030; NCI-H2030 cell line): 0.37
Max Inh @ 10 uM (%) (NCI-H661; NCI-H661, 10 uM): 73%
Mu/max @10 uM (NCI-H661; NCI-H661, 10 uM): 0.43
μ/μmax @10 uM (NCI-H661; NCI-H661, 10 uM): 0.43
μ/μmax (NCI-H661; NCI-H661 cell line): 0.43
μ/μmax (NCI-H1618): 0.53
μ/μmax (NCI-H1993): 0.89
Max Inh @ 10 uM (%) (NCI-H1975; NCI-H1975, 10 uM): 18%
Mu/max @10 uM (NCI-H1975; NCI-H1975, 10 uM): 0.75
μ/μmax @10 uM (NCI-H1975; NCI-H1975, 10 uM): 0.75
μ/μmax (NCI-H1975; NCI-H1975 cell line): 0.75
μ/μmax (NCI-H209): 0.64
Max Inh @ 10 uM (%) (NCI-H522; NCI-H522, 10 uM): 39%
Mu/max @10 uM (NCI-H522; NCI-H522, 10 uM): 0.61
μ/μmax @10 uM (NCI-H522; NCI-H522, 10 uM): 0.61
μ/μmax (NCI-H522; NCI-H522 cell line): 0.61
μ/μmax (NCI-H1650): 0.26
Max Inh @ 10 uM (%) (NCI-H1437; NCI-H1437, 10 uM): 27%
Mu/max @10 uM (NCI-H1437; NCI-H1437, 10 uM): 0.81
μ/μmax @10 uM (NCI-H1437; NCI-H1437, 10 uM): 0.81
μ/μmax (NCI-H1437; NCI-H1437 cell line): 0.81
μ/μmax (NCI-H1299): 0.49
μ/μmax (COR-L23): 0.96
μ/μmax (NCI-H1092): 0.77
μ/μmax (NCI-H292): 0.89
μ/μmax (NCI-H2126): 1.00
μ/μmax (NCI-H2107): 0.79
μ/μmax (NCI-H1694): 1.00
sensitivity to BPTES (NCI-H358; NCI-H358): relatively BPTES insensitive
Max Inh @ 10 uM (%) (NCI-H358; NCI-H358, 10 uM): 27%
Mu/max @10 uM (NCI-H358; NCI-H358, 10 uM): 0.66
μ/μmax @10 uM (NCI-H358; NCI-H358, 10 uM): 0.66
μ/μmax (NCI-H358; NCI-H358 cell line): 0.66
μ/μmax (NCI-H1734): −0.12
μ/μmax (NCI-H1651): 1.00
Max Inh @ 10 uM (%) (NCI-H2122; NCI-H2122, 10 uM): 58%
Mu/max @10 uM (NCI-H2122; NCI-H2122, 10 uM): 0.56
μ/μmax @10 uM (NCI-H2122; NCI-H2122, 10 uM): 0.56
μ/μmax (NCI-H2122; NCI-H2122 cell line): 0.56
Max Inh @ 10 uM (%) (NCI-H1568; NCI-H1568, 10 uM): 50%
Mu/max @10 uM (NCI-H1568; NCI-H1568, 10 uM): 0.25
μ/μmax @10 uM (NCI-H1568; NCI-H1568, 10 uM): 0.25
μ/μmax (NCI-H1568; NCI-H1568 cell line): 0.25
Max Inh @ 10 uM (%) (A549; A549, 10 uM): 73%
Mu/max @10 uM (A549; A549, 10 uM): 0.53
μ/μmax @10 uM (A549; A549, 10 uM): 0.53
μ/μmax (A549; A549 cell line): 0.53
μ/μmax (COR-L279): 0.88
μ/μmax (CALU-6): 0.82
μ/μmax (NCI-H2171): 0.88
μ/μmax (NCI-H1666): 1.00

From patent US10101331B2, “Methods of evaluating patients using E-cadherin or vimentin” (AGIOS PHARMACEUTICALS, INC, priority 2012, dated 2018)
